Values after ≈ are worked out from the molar mass of the structure shown. Like-named read-outs stand apart in the source and are kept apart here.
Assays:
[1] = system: Escherichia coli ATCC 25922; experiment: Microbroth dilution: EC50 of ampicillin and ceftriaxone in absence and presence of P1A; format: cell-based; settings: for EC50: Escherichia coli, ATCC25922, P1A 0, read-out: Ceftriaxone EC50
Description: (§1) Escherichia coli strain 25922 was cultured from glycerol stocks to logarithmic growth in cation adjusted Mueller-Hinton broth at 37° C. in an atmospheric environment and diluted in cation adjusted Mueller-Hinton broth to achieve a starting in well concentration of 5×10^5 CFU/mL. Serial 2-fold dilution of antimicrobial compounds were prepared in cation adjusted Mueller-Hinton broth to achieve final in well concentration of 128 μg/mL to 0.13 μg/mL for ampicillin and 4 μg/mL 4 ng/mL in the absence or presence of serial 10-fold dilutions of P1A, P3A, or P4A β-lactamase standard, 5 pg/mL to 50 ng/mL for ampicillin and […] to 500 ng/mL for ceftriaxone, ceftazidime, meropenem, cefepime, cefazolin, amp/sulbactam, cefoperazone, cefotaxime, and cefuroxime. Antibiotics were either added to the P1A and incubated for 30 min at 37° C. (pre-incubation) prior to addition of bacteria, or added to the plates following the addition of P1A, P3A, P4A, and bacteria (simultaneous). All concentrations and combinations were evaluated in triplicate in a 96-well plate format that contained media only, compound plus media only (colorimetric control), and untreated bacterial controls.
The 50% effective inhibitory concentration (EC50) of ampicillin and ceftriaxone against Escherichia coli was determined in the absence and presence of P1A β-lactamase. For the purposes of these studies, the stated effective concentration was the initial concentration of ampicillin or ceftriaxone added at the beginning of the experiment, and not a concentration measured during the course of the experiment or at the end of the incubation period.
Antibiotics were either added to the P1A and incubated for 30 min at 37° C. (Pre-incubation) prior to addition of bacteria, or added to the plates following the addition of P1A and bacteria (Simultaneous). All concentrations and combinations were evaluated in triplicate in a 96-well plate format. Following overnight incubation, the 0D625 of the plates was measured in a Spectramax 384 plate reader and the data were imported into a customized Excel spreadsheet for the determination of the 50% effective inhibitory concentration at (EC50) by linear regression analysis. For the purposes of these studies, the stated effective concentration is the initial concentration of ampicillin or ceftriaxone added at the beginning of the experiment, and not a concentration measured during the course of the experiment or at the end of the incubation period.
Antibiotics were either added to the P1A and incubated for 30 min at 37° C. (Pre-incubation) prior to addition of bacteria, or added to the plates following the addition of P1A and bacteria (Simultaneous). All concentrations and combinations were evaluated in triplicate in a 96-well plate format. Following overnight incubation, the OD625 of the plates was measured in a Spectramax 384 plate reader and the data were imported into a customized Excel spreadsheet for the determination of the 50% effective inhibitory concentration (EC50).
Antibiotics were added to the P1A bacteria (Simultaneous). All concentrations and combinations were evaluated in triplicate in a 96-well plate format. Following overnight incubation, the OD625 of the plates was measured in a Spectramax 384 plate reader and the data were imported into a customized Excel spreadsheet for the determination of the 50% effective inhibitory concentration at (EC50) by linear regression analysis.

[2] = system: Escherichia coli ATCC 25922; experiment: microbe, parasite or virus in culture; format: cell-based
Description: as §1
Next, the 90% effective inhibitory concentration (EC90) of ampicillin, ceftriaxone, ceftazidime, meropenem, cefepime, cefazolin, amp/sulbactam, cefoperazone, cefotaxime, and cefuroxime against Escherichia coli was determined in the absence and presence of P1A, P3A, or P4A β-lactamase. For the purposes of these studies, the stated effective concentration was the initial concentration of ampicillin, ceftriaxone, ceftazidime, meropenem, cefepime, cefazolin, amp/sulbactam, cefoperazone, cefotaxime, and cefuroxime added at the beginning of the experiment, and not a concentration measured during the course of the experiment or at the end of the incubation period.
Specifically, the assay was performed by diluting (2-fold steps) the chosen antibiotic across the rows of a 96 well dish. The MIC was determined as the point at which the diluted antibiotic transitions from killing to not killing the bacteria (in this case, an E. coli strain that is sensitive to all antibiotics). P1A, P3A, and P4A were diluted (10 fold steps) down the columns (the β-lactamase concentrations increased down the columns). […] The latter point was used as the cut-off point. […] However, for this assay, the absolute MIC is not the most important parameter. The most relevant readout was the β-lactamase concentration at which the apparent MIC increases to the maximum amount of antibiotic tested.
(§2) E coli 29522 was incubated overnight in the presence of serial dilutions of antibiotic and the indicated amounts of β-lactamase protein from cell culture supernatants in a 96 well plate. Bacterial density (OD625) of the cultures was measured and the concentration at which the density was reduced by 90% relative to an untreated bacterial control (EC90) was determined. The assay was performed on two separate days and the data reported as Rep1 and Rep2. NA=not assayed.
as §2, with “determined.” for “determined. The assay was performed on two separate days and the data reported as Rep1 and Rep2. NA=not assayed.”

[3] = system: Escherichia coli ATCC 25922; experiment: Microbroth dilution: EC50 of ampicillin and ceftriaxone in absence and presence of P1A; format: cell-based; settings: absence of P1A; ceftriaxone 0.13 to 128 μg/mL
[4] = system: Escherichia coli ATCC 25922; experiment: microbe, parasite or virus in culture; format: cell-based; settings: for EC50 / EC90: Escherichia coli, ATCC25922, no enzyme; for EC90: Table 17, read-out: Ceftriaxone EC90
[5] = Preliminary enzymatic activity of P1A mutants from B. subtilis supernatants; format: biochemical; settings: B. subtilis supernatant, one substrate concentration
Description: (§3) β-lactamase activity of the mutants was further characterised from E. coli cell lysates and B. subtilis growth supernatant with ampicillin, cefotaxime, ceftriaxone, cefuroxime, ceftazidime, meropenem and imipenem. The activities were determined using only one substrate concentration of each antibiotic tested. Selection of the antibiotic concentration was done with the antibiotic concentration as high as was practical, [S]>>Km. Based on these preliminary experiments, more accurate kinetic parameters were determined for a couple of mutants from both the site-directed and the random mutagenesis research lines. All the mutant enzymes selected for more detailed study were expressed in the B. subtilis host strain RS303. The cells carrying the mutated proteins were grown in minimal medium over-night after which the cells were harvested and the supernatant was concentrated in 1:10 with Amicon Ultra-4 centrifugal devices, MWCO 10000 (Amicon). Protein concentration in each culture supernatant was estimated from 12% SDS-PAGE (Criterion XT Bis-Tris, BioRad, Calif., USA) using the P1A reference material A18K31 as a standard. Kinetic parameters were measured for cefotaxime, ceftriaxone and cefuroxime for each selected mutant strain. The site-directed mutants were designed to hydrolyze cefotaxime and random mutants were screened with ceftriaxone, which made these antibiotics natural choices for determining kinetic parameters.

[6] = Kinetic parameters of P1A mutant strains; format: biochemical
Description: as §3

E. coli (ATCC 25922) = experiment: Microtiter plate antibiotic degradation activity assay; format: cell-based; settings: enzyme 10 or 100 ng/ml; antibiotic 10, 100 or 1000 μg/ml; FIG. 8
Description: P1A and P4A were screened for degradation of ampicillin, ceftriazone, cefotaxime, cefozolin, cefuroxime, cefoperazone, cefepime, and ceftazidime in a microtiter plate activity assay that was designed to mimic the activity of the beta-lactamases in the gut in the presence of high antibiotic concentrations. The assay was performed by mixing 10, 100 or 1000 μg/ml of the indicated antibiotics with P1A or P4A, at concentrations of 10 or 100 ng/ml. Plates were either incubated for one hour at 37° C. after which E. coli (ATCC 25922) was added, or E. coli was added immediately after the addition of the beta-lactamase enzymes. The plates were incubated overnight and the bacterial growth quantified by measuring the absorbance at 625 nm (OD625) in a Spectramax 384 Plus plate reader. The analysis was performed twice for each beta-lactamase and antibiotic. The beta-lactamase activity of the culture supernatants was determined as positive or negative based on the appearance of bacterial growth in the individual wells. An OD625 of 1.0 or greater indicated maximal bacterial growth, therefore complete antibiotic degradation and high beta-lactamase activity.

[7] = cited from earlier work
[8] = concentrated B. subtilis supernatant
[9] = relative values of P1A activities

For `CO/N=C(\C(=O)N[C@@H]1C(=O)N2C(C(=O)O)=C(CSc3nc(=O)c(=O)[nH]n3C)CS[C@H]12)c1csc(N)n1` [Ceftriaxone], the EC50 ([1]; pre-incubation, Table 12) was under 0.13 µg/mL, the EC50 ([1]; pre-incubation, Table 13) was 0.03 µg/mL and the EC50 ([1]; simultaneous, Table 12) was under 0.13 µg/mL. For the same compound, the EC50 ([1]; simultaneous, Table 13) was 0.02 µg/mL, the EC50 ([1]; simultaneous, Table 14 repeat analysis) was 0.03 µg/mL and the “Ceftriaxone EC90” value ([2]; no enzyme, 2nd value, high test 1 μg/mL, Table 17) was 0.06 µg/mL. The “ceftriaxone EC99” value [3] was under 0.13 µg/mL, the EC50 ([4]; 1st value, high test 1 μg/mL, Table 16, read-out: Ceftriazone EC50) was 0.06 µg/mL (≈ 0.108 µM) and the EC90 ([4]; 1st value, high test 1 μg/mL) was 0.03 µg/mL (≈ 0.0541 µM). For the same compound, the EC50 ([4]; 2nd value, high test 1 μg/mL, Table 16, read-out: Ceftriazone EC50) was 0.06 µg/mL (≈ 0.108 µM), the EC90 ([4]; 2nd value, high test 1 μg/mL) was 0.03 µg/mL (≈ 0.0541 µM) and the EC50 ([4]; Rep 2, Table 15, read-out: Ceftriaxone EC50) was 0.02 µg/mL (≈ 0.0361 µM). The “Ceftriaxone EC50” value ([4]; no enzyme, Rep 1, Table 15) was 0.008 µg/mL.
In the case of “P1A: Wild type; recombinant Bacillus licheniformis 749/C small exo beta-lactamase (PenP), SEQ ID NO: 1”, the “AMP = ampicillin enzymatic activity” value [5] is reported as 1.00 multiples of P1A, the “CAZ = ceftazidime enzymatic activity” value [5] is reported as 1.00 multiples of P1A and the “CRO = ceftriaxone enzymatic activity” value [5] is reported as 1.00 multiples of P1A. The “CTX = cefotaxime enzymatic activity” value [5] was 1.00 multiples of P1A, the “CXM = cefuroxime enzymatic activity” value [5] was 1.00 multiples of P1A and the “Cefotaxime Vmax” value [6, 8] was 1.18 nmol/s. The Cefotaxime kcat [6, 8] was 16 s⁻¹, the “Ceftriaxone Vmax” value [6, 8] was 2.81 nmol/s and the Ceftriaxone kcat [6, 8] was 25 s⁻¹. The “Cefuroxime Vmax” value [6, 8] was 1.25 nmol/s, the Cefuroxime kcat [6, 8] was 23 s⁻¹ and the “Cefotaxime Vmax” value [6, 9] was 1.00. For the same compound, the Cefotaxime kcat [6, 9] was 1 s⁻¹, the “Ceftriaxone Vmax” value [6, 9] was 1.00 and the Ceftriaxone kcat [6, 9] was 1 s⁻¹. The “Cefuroxime Vmax” value [6, 9] was 1.00, the Cefuroxime kcat [6, 9] was 1 s⁻¹ and the “more active against ampicillin than ceftriaxone” value ([1]; microbiological assay) was 1,000 fold. The inhibition by sulbactam ([2]; amp/sulbactam data) was “effectively inhibited”, the “activity for ceftriaxone, cefotaxime, and ceftazidime” value (E. coli (ATCC 25922)) was “no activity” and the “efficacy in humans with piperacillin/tazobactam” value [7] was “efficacious”.

Source: patent US9464280B1, “Beta-lactamases with improved properties for therapy” (priority 2014, dated 2016)
